Source: ChEMBL document CHEMBL1201862, “PubChem BioAssay data set” (2004)
Several values for one entry are separate records, joined by “and”; a condition that tells them apart may be missing. Equal entries are not always repeated.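 All cell lines were grown in 96-well plates and treated with compound for 48 hours. GI50: concentration for 50% inhibition of growth.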 Activity calls are given as the source filed them. Rule as the data show it: active = GI50 up to about 1.1 µM and inactive = higher.

Columns and labels:
Test in all cases: DTP human tumour cell line panel, 48 h
[1] = test system: MCF7
[2] = test system: NCI-H23
[3] = test system: HT-29
[4] = test system: SNB-75
[5] = test system: MOLT-4
[6] = test system: CCRF-CEM
[7] = test system: NCI-H226
[8] = test system: DU-145
[9] = test system: Hs-578T
[10] = test system: HCT-15
[11] = test system: SF-268
[12] = test system: HCT-116
[13] = test system: A549
[14] = test system: NCI-H460
[15] = test system: HL-60
[16] = test system: SNB-19
[17] = test system: OVCAR-8
[18] = test system: MDA-MB-231
[19] = test system: LOX IMVI
[20] = test system: SN12C

SMILES	GI50 [1]	GI50 [2]	GI50 [3]	GI50 [4]	GI50 [5]	GI50 [6]	GI50 [7]	GI50 [8]	GI50 [9]	GI50 [10]	GI50 [11]	GI50 [12]	GI50 [13]	GI50 [14]	GI50 [15]	GI50 [16]	GI50 [17]	GI50 [18]	GI50 [19]	GI50 [20]
COC1/C=C\C=C(/C)C(=O)NC2=CC(=O)C(NCCCl)=C(CC(C)CC(OC)C(O)C(C)/C=C(/C)C1OC(N)=O)C2=O (stereo unspecified)	0.0333 µM (active)	0.0715 µM (active)	0.0158 µM (active)	0.413 µM (active)	0.052 µM (active)	0.0993 µM (active)	0.729 µM (active)	0.569 µM (active)	4.89 µM (inactive)	0.301 µM	0.351 µM (active)	0.0489 µM (active)	0.53 µM (active)	0.0991 µM (active)	0.0281 µM (active)	0.927 µM (active)	0.115 µM (active)	2 µM (inactive)	0.0857 µM (active)	0.069 µM (active)
CCCN(CCC)C(=O)c1c(Cl)c2cccnc2n2c(C)cnc12	47.9 µM (inactive)	90.2 µM (inactive)	> 100 µM (inactive)	62.7 µM (inactive)	33.3 µM (inactive)	51.8 µM (inactive)	> 100 µM (inactive)	> 100 µM (inactive)	> 100 µM (inactive)	–	96.2 µM (inactive)	48.3 µM (inactive)	48.8 µM (inactive)	76.9 µM (inactive)	23.1 µM (inactive)	> 100 µM (inactive)	> 100 µM (inactive)	31.8 µM (inactive)	> 100 µM (inactive)	> 100 µM (inactive)
CCN(CC)Cc1cc(Nc2c3ccccc3nc3c4ccccc4n(C)c23)cc(CN(CC)CC)c1O	3.61 µM (inactive)	9.64 µM (inactive)	3.41 µM (inactive)	12 µM (inactive)	1.63 µM (inactive)	2.4 µM (inactive)	11.2 µM (inactive)	8.67 µM (inactive)	6.22 µM (inactive)	4.1 µM	6.78 µM (inactive)	2.89 µM (inactive)	8.43 µM (inactive)	3.89 µM (inactive)	2.31 µM (inactive)	12.2 µM (inactive)	4.39 µM (inactive)	3.03 µM (inactive)	–	6.61 µM (inactive)
COC(=O)c1ccc(NCC2=CC(=O)C=CC2=O)cc1	14.2 µM (inactive)	14.5 µM (inactive)	17.9 µM (inactive)	16.3 µM (inactive)	3.05 µM (inactive)	1.67 µM (inactive)	17.9 µM (inactive)	15.5 µM (inactive)	21.4 µM (inactive)	12.5 µM	13.7 µM (inactive)	3.74 µM (inactive)	22.7 µM (inactive)	–	2.33 µM (inactive)	14.8 µM (inactive)	13.9 µM (inactive)	14.2 µM (inactive)	5 µM (inactive)	–
O=C([O-])C(O)C(O)C(=O)O.[K+] (stereo unspecified) [POTASSIUM HYDROGENTARTRATE]	> 100 µM (inactive)	–	> 100 µM (inactive)	> 100 µM (inactive)	> 100 µM (inactive)	> 100 µM (inactive)	> 100 µM (inactive)	> 100 µM (inactive)	> 100 µM (inactive)	> 100 µM	> 100 µM (inactive)	> 100 µM (inactive)	> 100 µM (inactive)	> 100 µM (inactive)	> 100 µM (inactive)	> 100 µM (inactive)	> 100 µM (inactive)	> 100 µM (inactive)	> 100 µM (inactive)	> 100 µM (inactive)
CC1=C(O)C(O)=C(C2=C(O)C(O)=C(C)C(=O)C2=O)C(=O)C1=O	45.3 µM (inactive)	40.7 µM (inactive)	59.3 µM (inactive)	76.2 µM (inactive)	98.2 µM (inactive)	60 µM (inactive)	35.2 µM (inactive)	31.3 µM (inactive)	36.7 µM (inactive)	> 100 µM	56.9 µM (inactive)	46.7 µM (inactive)	–	40.6 µM (inactive)	42.9 µM (inactive)	50.5 µM (inactive)	47.4 µM (inactive)	31.8 µM (inactive)	30.6 µM (inactive)	45 µM (inactive)
N=C(CSS(=O)(=O)O)NC1CC2CCC1C2 (stereo unspecified)	> 100 µM (inactive)	> 100 µM (inactive)	–	> 100 µM (inactive)	78.2 µM (inactive)	> 100 µM (inactive)	> 100 µM (inactive)	> 100 µM (inactive)	> 100 µM (inactive)	> 100 µM	> 100 µM (inactive)	> 100 µM (inactive)	> 100 µM (inactive)	43.1 µM (inactive)	> 100 µM (inactive)	> 100 µM (inactive)	> 100 µM (inactive)	> 100 µM (inactive)	46 µM (inactive)	> 100 µM (inactive)
Cc1sc2nc3n(c(=O)c2c1C)N=C(c1ccc([N+](=O)[O-])cc1)CS3	> 100 µM (inactive)	> 100 µM (inactive)	> 100 µM (inactive)	83.8 µM (inactive)	> 100 µM (inactive)	> 100 µM (inactive)	> 100 µM (inactive)	> 100 µM (inactive)	97.5 µM (inactive)	> 100 µM	> 100 µM (inactive)	> 100 µM (inactive)	> 100 µM (inactive)	> 100 µM (inactive)	> 100 µM (inactive)	–	> 100 µM (inactive)	> 100 µM (inactive)	> 100 µM (inactive)	> 100 µM (inactive)
O=C1CCC2(CC1CC[S+]([O-])c1ccccc1)OCCO2 (stereo unspecified)	> 100 µM (inactive)	> 100 µM (inactive)	> 100 µM (inactive)	> 100 µM (inactive)	> 100 µM (inactive)	> 100 µM (inactive)	> 100 µM (inactive)	> 100 µM (inactive)	> 100 µM (inactive)	> 100 µM	> 100 µM (inactive)	–	> 100 µM (inactive)	> 100 µM (inactive)	89.7 µM (inactive)	> 100 µM (inactive)	> 100 µM (inactive)	> 100 µM (inactive)	> 100 µM (inactive)	–
N#C[C@H](c1nc2ccccc2[nH]1)c1nc2ccccc2nc1Cl	> 26 µM (inactive)	> 34.3 µM (inactive)	5.55 µM (inactive)	12.9 µM (inactive)	4.04 µM (inactive)	2.64 µM (inactive)	22.1 µM (inactive)	1.78 µM (inactive)	2.05 µM (inactive)	–	–	6.25 µM (inactive)	> 54.5 µM (inactive)	> 25.1 µM (inactive)	0.881 µM (active)	19.9 µM (inactive)	12.6 µM (inactive)	12.7 µM (inactive)	3 µM (inactive)	12.7 µM (inactive)
CC(=O)NC1(C)C(C)C2CC1C(C)C2(C)C (stereo unspecified)	> 100 µM (inactive)	> 100 µM (inactive)	> 100 µM (inactive)	> 100 µM (inactive)	> 100 µM (inactive)	> 100 µM (inactive)	> 100 µM (inactive)	> 100 µM (inactive)	> 100 µM (inactive)	–	> 100 µM (inactive)	> 100 µM (inactive)	> 100 µM (inactive)	> 100 µM (inactive)	> 100 µM (inactive)	> 100 µM (inactive)	> 100 µM (inactive)	> 100 µM (inactive)	–	> 100 µM (inactive)
CO[C@@H]1[C@H](OC(=O)NC(=O)CCl)CC[C@]2(CO2)[C@H]1[C@@]1(C)O[C@@H]1CC=C(C)C [O-CHLOROACETYLCARBAMOYLFUMAGILLOL]	12.4 µM (inactive)	15.8 µM (inactive)	5.66 µM (inactive)	7.96 µM (inactive)	6.56 µM (inactive)	0.9 µM (active)	19 µM (inactive)	12.2 µM (inactive)	19.9 µM (inactive)	14.1 µM	13.6 µM (inactive)	–	7.23 µM (inactive)	2.04 µM (inactive)	2.54 µM (inactive)	12 µM (inactive)	15.8 µM (inactive)	15.9 µM (inactive)	5.05 µM (inactive)	13.7 µM (inactive)
COc1ccc2c(c1OC)CN1CCc3cc4c(cc3C1C2)OCO4 (stereo unspecified) [TETRAHYDROBERBERINE]	> 100 µM (inactive)	> 100 µM (inactive)	–	> 100 µM (inactive)	> 100 µM (inactive)	–	> 100 µM (inactive) and 68.7 µM (inactive)	> 100 µM (inactive)	> 100 µM (inactive)	> 100 µM	> 100 µM (inactive)	> 100 µM (inactive)	> 100 µM (inactive)	61 µM (inactive)	> 100 µM (inactive)	> 100 µM (inactive)	> 100 µM (inactive)	> 100 µM (inactive)	> 100 µM (inactive)	> 100 µM (inactive)
COC(NC(=O)Nc1ccc(C)cc1)(C(F)(F)F)C(F)(F)F	41.3 µM (inactive)	30.1 µM (inactive)	31 µM (inactive)	28.1 µM (inactive)	9.08 µM (inactive)	2.67 µM (inactive)	55.8 µM (inactive)	35.6 µM (inactive)	25 µM (inactive)	–	40.4 µM (inactive)	29.3 µM (inactive)	34.8 µM (inactive)	32 µM (inactive)	> 100 µM (inactive)	23.7 µM (inactive)	25.2 µM (inactive)	32.2 µM (inactive)	3.08 µM (inactive)	28.1 µM (inactive)
C/C(=N\Nc1nc2ccccc2o1)c1cc(C)ncn1	0.0212 µM (active)	0.102 µM (active)	< 0.01 µM (active)	0.151 µM (active)	< 0.01 µM (active)	< 0.01 µM (active)	< 0.0142 µM (active)	0.171 µM (active)	0.231 µM (active)	0.043 µM	0.031 µM (active)	< 0.0191 µM (active)	0.0957 µM (active)	0.0455 µM (active)	< 0.01 µM (active)	0.405 µM (active)	0.0173 µM (active)	< 0.0203 µM (active)	–	< 0.0205 µM (active)
